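Each compound was tested at five concentrations against cells in 96-well plates for 48 hours. GI50 = concentration required for 50% inhibition of growth.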 Activity calls are given as the source filed them. Cut-off read from the data, not from the text of the source: active = GI50 up to about 1.1 µM and inactive = higher.
Legend:
Assay in all cases: DTP human tumour cell line panel, 48 h
RPMI-8226 = test system: RPMI-8226
SK-MEL-5 = test system: SK-MEL-5
M14 = test system: M14
SR = test system: SR
SK-OV-3 = test system: SK-OV-3
UACC-62 = test system: UACC-62
ACHN = test system: ACHN
NCI-H522 = test system: NCI-H522
UO-31 = test system: UO-31
HT-29 = test system: HT-29
HL-60 = test system: HL-60
NCI-H226 = test system: NCI-H226
DU-145 = test system: DU-145
MCF7 = test system: MCF7
Hs-578T = test system: Hs-578T
OVCAR-8 = test system: OVCAR-8
HOP-62 = test system: HOP-62
HCT-116 = test system: HCT-116
SNB-75 = test system: SNB-75
SN12C = test system: SN12C

SMILES | GI50 (RPMI-8226) | GI50 (SK-MEL-5) | GI50 (M14) | GI50 (SR) | GI50 (SK-OV-3) | GI50 (UACC-62) | GI50 (ACHN) | GI50 (NCI-H522) | GI50 (UO-31) | GI50 (HT-29) | GI50 (HL-60) | GI50 (NCI-H226) | GI50 (DU-145) | GI50 (MCF7) | GI50 (Hs-578T) | GI50 (OVCAR-8) | GI50 (HOP-62) | GI50 (HCT-116) | GI50 (SNB-75) | GI50 (SN12C)
Oc1ccc(-c2cc(-c3cc(-c4ccc(O)cc4)no3)on2)cc1 | 3.52 µM (inactive) | 36.9 µM (inactive) | > 32.4 µM (inactive) | 19.1 µM (inactive) | > 100 µM (inactive) | 1.16 µM (inactive) | 2.81 µM (inactive) | 19.7 µM (inactive) | 10.8 µM (inactive) | > 100 µM (inactive) | 3.36 µM (inactive) | > 75.9 µM (inactive) | 5.09 µM (inactive) | 34.2 µM (inactive) | > 100 µM (inactive) | > 100 µM (inactive) | > 50.9 µM (inactive) | 45.3 µM (inactive) | > 52.8 µM (inactive) | –
CCOC(=O)N/N=C(\CC)NO | > 100 µM (inactive) | > 100 µM (inactive) | – | > 100 µM (inactive) | > 100 µM (inactive) | > 100 µM (inactive) | > 100 µM (inactive) | > 100 µM (inactive) | > 100 µM (inactive) | > 100 µM (inactive) | > 100 µM (inactive) | > 100 µM (inactive) | > 100 µM (inactive) | > 100 µM (inactive) | > 100 µM (inactive) | > 100 µM (inactive) | > 100 µM (inactive) | > 100 µM (inactive) | – | > 100 µM (inactive)
CC(=O)OC1[C@H](n2ccnc2)C[C@H]2[C@@H]3CC=C4CC(N5CCCC5)CC[C@]4(C)[C@H]3CC[C@]12C (some centres not stated) | 23.2 µM (inactive) | 33 µM (inactive) | 21.8 µM (inactive) | 12 µM (inactive) | – | 27.5 µM (inactive) | 52.2 µM (inactive) | 24.1 µM (inactive) | 49.5 µM (inactive) | 5.35 µM (inactive) | 12.1 µM (inactive) | 40.1 µM (inactive) | > 100 µM (inactive) | 33.9 µM (inactive) | > 100 µM (inactive) | 62.5 µM (inactive) | – | 21 µM (inactive) | > 100 µM (inactive) | 51.9 µM (inactive)
COc1cc2c(cc1OC)C1=CCC(c3ccccc3)[N+]1(C)CC2 (configuration not stated) | > 100 µM (inactive) | 78.5 µM (inactive) | > 100 µM (inactive) | > 100 µM (inactive) | > 100 µM (inactive) | > 100 µM (inactive) | > 100 µM (inactive) | – | > 100 µM (inactive) | > 100 µM (inactive) | > 100 µM (inactive) | > 100 µM (inactive) | > 100 µM (inactive) | > 100 µM (inactive) | > 100 µM (inactive) | > 100 µM (inactive) | – | > 100 µM (inactive) | > 100 µM (inactive) | –
COc1cc(OCc2ccc3nc(-c4ccccc4)c(N)nc3c2)cc(OC)c1OC | 8.79 µM (inactive) | 11.3 µM (inactive) | 15.8 µM (inactive) | 17.9 µM (inactive) | – | 13.4 µM (inactive) | 20.8 µM (inactive) | 13.6 µM (inactive) | 10.7 µM (inactive) | – | 12.4 µM (inactive) | 21.3 µM (inactive) | 22.2 µM (inactive) | 22 µM (inactive) | 21.2 µM (inactive) | 27.8 µM (inactive) | – | 3.61 µM (inactive) | 19.2 µM (inactive) | 25.7 µM (inactive)
O=C(O)CN1C=C(C(=O)c2cc3ccccc3n2S(=O)(=O)c2ccccc2)CCC1 | – | 24.9 µM (inactive) | 69.8 µM (inactive) | 36.4 µM (inactive) | > 10 µM (inactive) | 83 µM (inactive) | 29.6 µM (inactive) | – | 30.4 µM (inactive) | 50 µM (inactive) | 32.2 µM (inactive) | 46.8 µM (inactive) | > 100 µM (inactive) | 49.9 µM (inactive) | 81.3 µM (inactive) | 64.6 µM (inactive) | > 100 µM (inactive) | 57.3 µM (inactive) | 27.5 µM (inactive) | –
Nn1c(SCC(=O)NCc2ccccc2)nc2ccccc2c1=O | 40.8 µM (inactive) | 41 µM (inactive) | 36.6 µM (inactive) | 21.1 µM (inactive) | – | 41.6 µM (inactive) | 40.6 µM (inactive) | 41.7 µM (inactive) | 43.9 µM (inactive) | 45.4 µM (inactive) | – | 79.1 µM (inactive) | 65 µM (inactive) | 52.1 µM (inactive) | 57.5 µM (inactive) | 40.6 µM (inactive) | – | 29.4 µM (inactive) | > 100 µM (inactive) | > 100 µM (inactive)
CN(C)CC(C)(C)CN1c2ccccc2Sc2ccccc21 | 16.4 µM (inactive) | 16 µM (inactive) | 10.4 µM (inactive) | 10.1 µM (inactive) | 13.2 µM (inactive) | 14.9 µM (inactive) | 15.1 µM (inactive) | 13.2 µM (inactive) | – | 10.8 µM (inactive) | – | 18 µM (inactive) | 12.4 µM (inactive) | 16.4 µM (inactive) | 14 µM (inactive) | 15.3 µM (inactive) | 12.9 µM (inactive) | 13.8 µM (inactive) | 4.28 µM (inactive) | 12.9 µM (inactive)
COc1cc2c3c(n(Cc4ccccc4)c(=O)c2cc1OC)-c1ccccc1C3=O | > 100 µM (inactive) | > 100 µM (inactive) | > 100 µM (inactive) | 4.1 µM (inactive) | – | > 100 µM (inactive) | > 100 µM (inactive) | > 100 µM (inactive) | > 100 µM (inactive) | > 100 µM (inactive) | > 100 µM (inactive) | > 100 µM (inactive) | > 100 µM (inactive) | > 100 µM (inactive) | 63.7 µM (inactive) | > 100 µM (inactive) | > 100 µM (inactive) | > 100 µM (inactive) | 32.3 µM (inactive) | 57.1 µM (inactive)
COc1cc([C@@H]2c3cc4c(cc3[C@@H](Nc3ccccc3C(=O)c3ccccc3)[C@H]3COC(=O)[C@H]23)OCO4)cc(OC)c1OC | 0.381 µM (active) | 0.475 µM (active) | 0.729 µM (active) | 0.332 µM (active) | – | 0.362 µM (active) | 0.535 µM (active) | 0.31 µM (active) | 0.776 µM (active) | 0.314 µM (active) | 0.212 µM (active) | 0.431 µM (active) | 1.82 µM (inactive) | 0.379 µM (active) | 0.373 µM (active) | 0.47 µM (active) | 2.11 µM (inactive) | 0.321 µM (active) | 0.849 µM (active) | 1.9 µM (inactive)
c1ccc2c(c1)nc1ccccn12 | > 100 µM (inactive) | > 100 µM (inactive) | > 100 µM (inactive) | > 100 µM (inactive) | > 100 µM (inactive) | > 100 µM (inactive) | > 100 µM (inactive) | – | > 100 µM (inactive) | > 100 µM (inactive) | > 100 µM (inactive) | > 100 µM (inactive) | > 100 µM (inactive) | > 100 µM (inactive) | 33.6 µM (inactive) | > 100 µM (inactive) | > 100 µM (inactive) | > 100 µM (inactive) | > 100 µM (inactive) | > 100 µM (inactive)
N#CC1=C(N)OC2=C(CSc3ccccc32)C1c1ccc(Br)cc1 (configuration not stated) | 2.07 µM (inactive) | 11.6 µM (inactive) | 9.27 µM (inactive) | 2.54 µM (inactive) | 13.4 µM (inactive) | 6.65 µM (inactive) | – | – | 11.5 µM (inactive) | 4.59 µM (inactive) | 2.59 µM (inactive) | 11.5 µM (inactive) | 20 µM (inactive) | 3.42 µM (inactive) | 28.1 µM (inactive) | 2.75 µM (inactive) | 14.1 µM (inactive) | 2.96 µM (inactive) | 7.62 µM (inactive) | 6.19 µM (inactive)
COc1cc(C=O)ccc1O [VANILLIN] | > 100 µM (inactive) | > 100 µM (inactive) | > 100 µM (inactive) | > 100 µM (inactive) | – | – | > 100 µM (inactive) | > 100 µM (inactive) | > 100 µM (inactive) | > 100 µM (inactive) | > 100 µM (inactive) | > 100 µM (inactive) | > 100 µM (inactive) | > 100 µM (inactive) | > 100 µM (inactive) | > 100 µM (inactive) | > 100 µM (inactive) | > 100 µM (inactive) | > 100 µM (inactive) | > 100 µM (inactive)
CC(=O)OCC1OC(N2C(=O)NC(=O)C3C=C4CCCCC4=CC32)CC1OC(C)=O (configuration not stated) | > 100 µM (inactive) | – | > 100 µM (inactive) | > 100 µM (inactive) | > 100 µM (inactive) | > 100 µM (inactive) | > 100 µM (inactive) | 70 µM (inactive) | > 100 µM (inactive) | > 100 µM (inactive) | 72.8 µM (inactive) | > 100 µM (inactive) | > 100 µM (inactive) | > 100 µM (inactive) | > 100 µM (inactive) | > 100 µM (inactive) | > 100 µM (inactive) | > 100 µM (inactive) | 56.4 µM (inactive) | > 100 µM (inactive)
CCOC(=O)C1(C#N)C2(C#N)C(N)=NC(ON=C(C)C)(ON=C(C)C)C12C#N (configuration not stated) | > 100 µM (inactive) | > 100 µM (inactive) | > 100 µM (inactive) | > 100 µM (inactive) | > 100 µM (inactive) | > 100 µM (inactive) | > 100 µM (inactive) | > 100 µM (inactive) | > 100 µM (inactive) | > 100 µM (inactive) | > 100 µM (inactive) | > 100 µM (inactive) | > 100 µM (inactive) | > 100 µM (inactive) | > 100 µM (inactive) | > 100 µM (inactive) | > 100 µM (inactive) | > 100 µM (inactive) | – | > 100 µM (inactive)
